Structures are written as SMILES.

ADAMTS4, sequence (O75173 213-685): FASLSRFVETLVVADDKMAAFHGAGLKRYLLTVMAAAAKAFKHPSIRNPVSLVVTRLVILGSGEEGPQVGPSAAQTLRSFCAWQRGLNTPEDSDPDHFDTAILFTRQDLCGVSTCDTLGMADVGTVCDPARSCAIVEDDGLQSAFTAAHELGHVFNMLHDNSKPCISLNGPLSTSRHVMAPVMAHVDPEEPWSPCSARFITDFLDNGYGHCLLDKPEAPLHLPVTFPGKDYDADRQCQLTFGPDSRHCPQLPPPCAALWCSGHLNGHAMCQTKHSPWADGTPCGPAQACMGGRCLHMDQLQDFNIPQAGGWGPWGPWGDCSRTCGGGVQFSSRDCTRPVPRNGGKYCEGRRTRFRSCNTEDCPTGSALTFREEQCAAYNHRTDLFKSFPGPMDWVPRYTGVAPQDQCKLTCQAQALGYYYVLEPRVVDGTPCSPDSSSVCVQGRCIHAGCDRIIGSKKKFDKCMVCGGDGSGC

The test has as its target ADAMTS4 (Homo sapiens (Human), UniProt O75173). The experiment in a line: Selectivity assay for ADAMTS-7 modulators: ADAMTS4 (FRET substrate). Format: biochemical. Particulars: ADAMTS4 (R&D 4307-AD) 50 nM, substrate Dabcyl-EEVKAKVQPY-Glu(Edans)-NH2 1 μM, 120 min, 32° C. In outline: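 Activity read as rising fluorescence after a FRET substrate is cleaved by human ADAMTS4, with reactions started by substrate addition to wells holding compound or DMSO. Percent inhibition plotted against concentration gave IC50.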
The compound `O=C1NC(=O)C(CNC(=O)c2ccccc2-c2ccc(C(F)(F)F)cc2)(c2cscn2)N1` (stereo not drawn) [Example 197, Ent-N-{[2,5-Dioxo-4-(1,3-Thiazol-4-Yl)Imidazolidin-4-Yl]Methyl}-4′-(Trifluoromethyl)[Biphenyl]-2-Carboxamide] showed an IC50 of 13 µM. As to `Cc1conc1C1(CNC(=O)c2ccccc2-c2ccc(C(F)(F)F)cc2)NC(=O)NC1=O` (racemic) [Example 44, Rac-N-{[4-(4-Methyl-1,2-Oxazol-3-Yl)-2,5-Dioxoimidazolidin-4-Yl]Methyl}-4′-(Trifluoromethyl)[Biphenyl]-2-Carboxamide], the IC50 was 11 µM.

On to `O=C1NC(=O)C(CNC(=O)c2ccccc2-c2ccc(Cl)cc2)(C2CC(F)(F)C2)N1` (single isomer, unassigned; ent-4) [Example 247, Ent-4′-Chloro-N-{[4-(3,3-Difluorocyclobutyl)-2,5-Dioxoimidazolidin-4-Yl]Methyl}[Biphenyl]-2-Carboxamide], for which the IC50 was above 50 µM.

Compound `Cc1nc(C2(CNC(=O)c3ccc(F)cc3-c3ccc(C(F)(F)F)cc3)NC(=O)NC2=O)c(C)s1` (racemic) [Example 269, Rac-N-{[4-(2,5-Dimethyl-1,3-Thiazol-4-Yl)-2,5-Dioxoimidazolidin-4-Yl]Methyl}-5-Fluoro-4′-(Trifluoromethyl)[Biphenyl]-2-Carboxamide] came in with an IC50 of 9.5 µM. On to `O=C1NC(=O)C(CNC(=O)c2ccccc2-c2ccc(C(F)(F)F)nc2)(C2CCOCC2)N1` (racemic) [Example 36, Rac-N-{[2,5-Dioxo-4-(Tetrahydro-2H-Pyran-4-Yl)Imidazolidin-4-Yl]Methyl}-2-[6-(Trifluoromethyl)Pyridin-3-Yl]Benzamide], for which the IC50 is above 50 µM.

With `Cc1ccc(-c2ccc(F)cc2C(=O)NC[C@@]2(C3CC3)NC(=O)NC2=O)cc1` [Example 219, N-{[(4R)-4-Cyclopropyl-2,5-Dioxoimidazolidin-4-Yl]Methyl}-4-Fluoro-4-Methyl[Biphenyl]-2-Carboxamide], the IC50 came out at 2.8 µM. With `CCC(F)(F)c1ccc(-c2ccccc2C(=O)NC[C@@]2(C3CC3)NC(=O)NC2=O)cc1` [Example 102, N-{[(4R)-4-Cyclopropyl-2,5-Dioxoimidazolidin-4-Yl]Methyl}-4′-(1,1-Difluoropropyl)[Biphenyl]-2-Carboxamide] the figure was 6.6 µM; with `O=C1NC(=O)[C@](CNC(=O)c2cc(F)ccc2-c2ccc(C3CC3(F)F)cc2)(C2CC2)N1` (stereo partly drawn) [Example 140, N-{[(4R)-4-Cyclopropyl-2,5-Dioxoimidazolidin-4-Yl]Methyl}-4′-(2,2-Difluorocyclopropyl)-4-Fluoro[1,1′-Biphenyl]-2-Carboxamide], 11 µM. With `O=C1NC(=O)[C@](CNC(=O)c2ccccc2-c2ccc(C3CC3)cc2)(C2CC2)N1` [Example 105, 4′-Cyclopropyl-N-{[(4R)-4-Cyclopropyl-2,5-Dioxoimidazolidin-4-Yl]Methyl}[Biphenyl]-2-Carboxamide] the figure was 4.9 µM; with `O=C1NC(=O)[C@](CNC(=O)c2cc(F)ccc2-c2ccc(Cl)c(Cl)c2)(C2CC2)N1` [Example 234, 3′,4′-Dichloro-N-{[(4R)-4-Cyclopropyl-2,5-Dioxoimidazolidin-4-Yl]Methyl}-4-Fluoro[1,1′-Biphenyl]-2-Carboxamide], 16 µM. `O=C1NC(=O)C(CNC(=O)c2ccc(F)cc2-c2ccc(Cl)cc2)(C2(F)CC2)N1` (racemic) [Example 249, Rac-4′-Chloro-5-Fluoro-N-{[4-(1-Fluorocyclopropyl)-2,5-Dioxoimidazolidin-4-Yl]Methyl}[Biphenyl]-2-Carboxamide] yielded an IC50 of 35 µM. `O=C1NC(=O)C(CNC(=O)c2ccccc2-c2ccc(C(F)(F)F)cc2)(c2ncsc2C(F)(F)F)N1` (stereo not drawn) [Example 264, Ent-N-({2,5-Dioxo-4-[5-(Trifluoromethyl)-1,3-Thiazol-4-Yl]Imidazolidin-4-Yl}Methyl)-4′-(Trifluoromethyl)[Biphenyl]-2-Carboxamide] gave an IC50 of 11 µM. `O=C1NC(=O)[C@](CNC(=O)c2ccccc2-c2ccc(OC(F)F)cc2)(C2CC2)N1` [Example 127, N-{[(4R)-4-Cyclopropyl-2,5-Dioxoimidazolidin-4-Yl]Methyl}-4′-(Difluoromethoxy)[Biphenyl]-2-Carboxamide] returned an IC50 of 13 µM. For `CC(C)C1(CNC(=O)c2ccccc2-c2ccc(C(F)(F)F)cc2)NC(=O)NC1=O` (racemic) [Example 208, Rac-N-[(4-Isopropyl-2,5-Dioxoimidazolidin-4-Yl)Methyl]-4′-(Trifluoromethyl)[Biphenyl]-2-Carboxamide], the IC50 is above 50 µM. As to `CC1CCC1C1(CNC(=O)c2ccccc2-c2ccc(C(F)(F)F)cc2)NC(=O)NC1=O` (stereo not drawn) [Example 13, Diamix-N-{[4-(2-Methylcyclobutyl)-2,5-Dioxoimidazolidin-4-Yl]Methyl}-4′-(Trifluoromethyl)[Biphenyl]-2-Carboxamide], the IC50 was above 50 µM.

The compound `O=C1NC(=O)[C@](CNC(=O)c2ccc(C(F)(F)F)cc2-c2ccc(C(F)(F)F)cc2)(C2CC2)N1` [Example 117, N-{[(4R)-4-Cyclopropyl-2,5-Dioxoimidazolidin-4-Yl]Methyl}-4′,5-Bis(Trifluoromethyl)[Biphenyl]-2-Carboxamide] gave a concentration for half-maximal inhibition (IC50) of 61 µM.

For the compound `Cn1ccnc1C1(CNC(=O)c2ccc(F)cc2-c2ccc(Cl)cc2)NC(=O)NC1=O` (single isomer, unassigned; ent-4) [Example 157, Ent-4′-Chloro-5-Fluoro-N-{[4-(1-Methyl-1H-Imidazol-2-Yl)-2,5-Dioxoimidazolidin-4-Yl]Methyl}[Biphenyl]-2-Carboxamide], the midpoint of inhibition, the IC50, lay at 3 µM. The compound `COc1ccc(C(=O)NC[C@@]2(C3CC3)NC(=O)NC2=O)c(-c2ccc(C(F)(F)F)cc2)c1` [Example 107, N-{[(4R)-4-Cyclopropyl-2,5-Dioxoimidazolidin-4-Yl]Methyl}-5-Methoxy-4′-(Trifluoromethyl)[Biphenyl]-2-Carboxamide] showed an IC50 of 6.2 µM. For `O=C1NC(=O)[C@](CNC(=O)c2ccncc2-c2ccc(C(F)(F)F)cc2)(C2CC2)N1` [Example 83, N-{[(4R)-4-Cyclopropyl-2,5-Dioxoimidazolidin-4-Yl]Methyl}-3-[4-(Trifluoromethyl)Phenyl]Pyridine-4-Carboxamide], the IC50 came out at 36 µM. Take `Cc1scnc1C1(CNC(=O)c2ccccc2-c2ccc(C(F)(F)F)cc2)NC(=O)NC1=O` (single isomer, unassigned) [Example 3, Ent-N-{[4-(5-Methyl-1,3-Thiazol-4-Yl)-2,5-Dioxoimidazolidin-4-Yl]Methyl}-4′-(Trifluoromethyl)[Biphenyl]-2-Carboxamide]: the IC50 is 4.8 µM.

With `Cc1scnc1C1(CNC(=O)c2cc(F)ccc2-c2ccc(C(F)(F)F)cc2)NC(=O)NC1=O` (single isomer, unassigned; ent-4) [Example 166, Ent-4-Fluoro-N-{[4-(5-Methyl-1,3-Thiazol-4-Yl)-2,5-Dioxoimidazolidin-4-Yl]Methyl}-4′-(Trifluoromethyl)[Biphenyl]-2-Carboxamide], 3.25 µM corresponded to half-maximal inhibition (IC50). With `Cn1nccc1C1(CNC(=O)c2ccc(F)cc2-c2ccc(C(F)(F)F)nc2)NC(=O)NC1=O` (single isomer, unassigned; ent-4) [Example 291, Ent-4-Fluoro-N-{[4-(1-Methyl-1H-Pyrazol-5-Yl)-2,5-Dioxoimidazolidin-4-Yl]Methyl}-2-[6-(Trifluoromethyl)Pyridin-3-Yl]Benzamide], the midpoint of inhibition, the IC50, lay at 14 µM. With `Cc1nn(C)cc1C1(CNC(=O)c2ccccc2-c2ccc(C(F)(F)F)cc2)NC(=O)NC1=O` (racemic) [Example 60, Rac-N-{[4-(1,3-Dimethyl-1H-Pyrazol-4-Yl)-2,5-Dioxoimidazolidin-4-Yl]Methyl}-4′-(Trifluoromethyl)[Biphenyl]-2-Carboxamide] the figure was 15 µM; with `CCc1ccc(-c2ccccc2C(=O)NC[C@@]2(C3CC3)NC(=O)NC2=O)cc1` [Example 106, N-{[(4R)-4-Cyclopropyl-2,5-Dioxoimidazolidin-4-Yl]Methyl}-4′-Ethyl[Biphenyl]-2-Carboxamide], 5.4 µM; with `Cc1nc(C)c(C2(CNC(=O)c3ccccc3-c3ccc(C(F)(F)F)nc3)NC(=O)NC2=O)s1` (stereo not drawn) [Example 74, Ent-N-{[4-(2,4-Dimethyl-1,3-Thiazol-5-Yl)-2,5-Dioxoimidazolidin-4-Yl]Methyl}-2-[6-(Trifluoromethyl)Pyridin-3-Yl]Benzamide], 5.2 µM. The figure for `O=C1NC(=O)[C@](CNC(=O)c2ccccc2-c2ccc(C3CC3(F)F)cc2)(C2CC2)N1` (stereo partly drawn) [Example 111, N-{[(4R)-4-Cyclopropyl-2,5-Dioxoimidazolidin-4-Yl]Methyl}-4′-(2,2-Difluorocyclopropyl)[Biphenyl]-2-Carboxamide] is 7.9 µM; for `CCC(C)C1(CNC(=O)c2ccccc2-c2ccc(C(F)(F)F)nc2)NC(=O)NC1=O` (stereo not drawn) [Example 51, Diamix-N-[(4-Sec-Butyl-2,5-Dioxoimidazolidin-4-Yl)Methyl]-2-[6-(Trifluoromethyl)Pyridin-3-Yl]Benzamide] it is 25 µM. With `O=C1NC(=O)[C@](CNC(=O)c2ccc(F)cc2-c2ccc(C3CC3)cc2)(C2CC2)N1` [Example 104, 4′-Cyclopropyl-N-{[(4R)-4-Cyclopropyl-2,5-Dioxoimidazolidin-4-Yl]Methyl}-5-Fluoro[Biphenyl]-2-Carboxamide] the figure was 8.7 µM; with `Cn1nccc1C1(CNC(=O)c2ccccc2-c2ccc(Cl)cc2)NC(=O)NC1=O` (racemic) [Example 181, Rac-4′-Chloro-N-{[4-(1-Methyl-1H-Pyrazol-5-Yl)-2,5-Dioxoimidazolidin-4-Yl]Methyl}[Biphenyl]-2-Carboxamide], 12 µM; with `O=C1NC(=O)[C@](CNC(=O)c2ccc(C(F)(F)F)cc2-c2ccc(Cl)cc2)(C2CC2)N1` [Example 89, 4′-Chloro-N-{[(4R)-4-Cyclopropyl-2,5-Dioxoimidazolidin-4-Yl]Methyl}-5-(Trifluoromethyl)[1,1′-Biphenyl]-2-Carboxamide], 7.6 µM.

By IC50 is commonly meant the midpoint of a concentration-inhibition curve. Low readings indicate greater potency, high ones weaker potency.

The values above are taken from patent US12398120B2, “Substituted hydantoinamides as ADAMTS7 antagonists” (BAYER AKTIENGESELLSCHAFT, priority 2019, dated 2025).
